According to patent publication US8623899B2, “Bis-benzimidazole derivatives as hepatitis C virus inhibitors” (Janssen Research & Development Ireland, priority 2009, dated 2014):
pEC50: −log10 of the molar value.

These compounds were tested on HCV type 1b replicon in Huh-7 luc/neo (Huh-Luc) cells (assay: HCV replicon assay (Huh-Luc, luciferase readout)). Details: Hepatitis C virus, Huh-7, 72 h, luciferase activity, incubation of three days, read-out: HCV-REP-HUH7LUC_EC50.
Assay type: cell-based
Text: The compounds of formula (I) were examined for inhibitory activity in the HCV replicon. This cellular assay is based on a bicistronic expression construct, as described by Lohmann et al. (1999) Science vol. 285 pp. 110-113 with modifications described by Krieger et al. (2001) Journal of Virology 75: 4614-4624, in a multi-target screening strategy.
In essence, the method was as follows:
The assay utilized the stably transfected cell line Huh-7 luc/neo (hereafter referred to as Huh-Luc). This cell line harbors an RNA encoding a bicistronic expression construct comprising the wild type NS3-NS5B regions of HCV type 1b translated from an Internal Ribosome Entry Site (IRES) from encephalomyocarditis virus (EMCV), preceded by a reporter portion (FfL-luciferase), and a selectable marker portion (neo^R, neomycine phosphotransferase). The construct is flanked by 5′ and 3′ NTRs (non-translated regions) from HCV type 1b. Continued culture of the replicon cells in the presence of G418 (neo^R) is dependent on the replication of the HCV RNA. The stably transfected replicon cells that express HCV RNA, which replicates autonomously and to high levels, encoding inter alia luciferase, were used for screening the antiviral compounds.
The replicon cells were plated in 384 well plates in the presence of the test and control compounds which were added in various concentrations. Following an incubation of three days, HCV replication was measured by assaying luciferase activity (using standard luciferase assay substrates and reagents and a Perkin Elmer ViewLux™ ultraHTS microplate imager). Replicon cells in the control cultures have high luciferase expression in the absence of any inhibitor. The inhibitory activity of the compound on luciferase activity was monitored on the Huh-Luc cells, enabling a dose-response curve for each test compound. EC50 values were then calculated, which represent the amount of compound required to decrease the level of detected luciferase activity by 50%, or more specifically, to reduce the ability of the genetically linked HCV replicon RNA to replicate.
In the case of `COC(=O)N[C@H](C(=O)N1CCC[C@H]1c1nc2ccc(-c3ccc(-c4ccc5nc([C@@H]6CCCN6C(=O)[C@@H](NC(=O)OC)C(C)(C)C)[nH]c5c4)cc3)cc2[nH]1)C(C)(C)C` [Compound 37], the pEC50 was 11.00. For `CC(C)(C)OC(=O)N[C@@H](C(=O)N1CCC[C@H]1c1nc2ccc(-c3ccc(-c4ccc5nc([C@@H]6CCCN6C(=O)[C@H](NC(=O)OC(C)(C)C)c6ccccc6)[nH]c5c4)cc3)cc2[nH]1)c1ccccc1` [Compound 38], the pEC50 was 10.85. Compound `COC(=O)N[C@@H](C(=O)N1CCCC1c1nc2ccc(-c3ccc(-c4ccc5nc([C@@H]6CCCN6C(=O)[C@H](NC(=O)OC)c6ccccc6)[nH]c5c4)cc3)cc2[nH]1)c1ccccc1` (stereo partly drawn) [Compound 39] has a pEC50 of 11.17. Work on `COC(=O)N[C@H](C(=O)N1CCC[C@H]1c1nc2cc(-c3ccc(-c4ccc5nc([C@@H]6CCCN6C(=O)[C@@H](NC(=O)OC)C6CC6)[nH]c5c4)cc3)ccc2[nH]1)C1CC1` [Compound 40] yielded a pEC50 of 10.85. Compound `CCOC(=O)N[C@H](C(=O)N1CCC[C@H]1c1nc2ccc(-c3ccc(-c4ccc5nc([C@@H]6CCCN6C(=O)[C@@H](NC(=O)OCC)C(C)C)[nH]c5c4)cc3)cc2[nH]1)C(C)C` [Compound 41] has a pEC50 of 7.77. In the case of `CCN(C1CC1)[C@@H](C(=O)N1CCC[C@H]1c1nc2ccc(-c3ccc(-c4ccc5nc([C@@H]6CCCN6C(=O)[C@@H](c6ccccc6)N(CC)C6CC6)[nH]c5c4)cc3)cc2[nH]1)c1ccccc1` [Compound 42], the pEC50 was 10.20. Compound `O=C([C@@H](c1ccccc1)N1CCCC1)N1CCC[C@H]1c1nc2ccc(-c3ccc(-c4ccc5nc([C@@H]6CCCN6C(=O)[C@@H](c6ccccc6)N6CCCC6)[nH]c5c4)cc3)cc2[nH]1` [Compound 45] has a pEC50 of 10.29. `O=C([C@@H](c1ccccc1)N1CCOCC1)N1CCC[C@H]1c1nc2ccc(-c3ccc(-c4ccc5nc([C@@H]6CCCN6C(=O)[C@@H](c6ccccc6)N6CCOCC6)[nH]c5c4)cc3)cc2[nH]1` [Compound 46] showed a pEC50 of 10.66. With `O=C([C@H](O)c1ccccc1Cl)N1CCC[C@H]1c1nc2ccc(-c3ccc(-c4ccc5nc([C@@H]6CCCN6C(=O)[C@H](O)c6ccccc6Cl)[nH]c5c4)cc3)cc2[nH]1` [Compound 48] the pEC50 was 10.96. With `O=C([C@H](O)c1cccc(Cl)c1)N1CCC[C@H]1c1nc2ccc(-c3ccc(-c4ccc5nc([C@@H]6CCCN6C(=O)[C@H](O)c6cccc(Cl)c6)[nH]c5c4)cc3)cc2[nH]1` [Compound 49] the pEC50 was 10.57. In the case of `COCC[C@H](NC(=O)OC)C(=O)N1CCC[C@H]1c1nc2ccc(-c3ccc(-c4ccc5nc([C@@H]6CCCN6C(=O)[C@H](CCOC)NC(=O)OC)[nH]c5c4)cc3)cc2[nH]1` [Compound 51], the pEC50 was 10.92. Compound `CC(C)OC(=O)N[C@H](C(=O)N1CCC[C@H]1c1nc2ccc(-c3ccc(-c4ccc5nc([C@@H]6CCCN6C(=O)[C@@H](NC(=O)OC(C)C)C(C)C)[nH]c5c4)cc3)cc2[nH]1)C(C)C` [Compound 52] has a pEC50 of less than 7.01. With `CCC(=O)N[C@H](C(=O)N1CCC[C@H]1c1nc2ccc(-c3ccc(-c4ccc5nc([C@@H]6CCCN6C(=O)[C@@H](NC(=O)CC)C(C)C)[nH]c5c4)cc3)cc2[nH]1)C(C)C` [Compound 53] the pEC50 was 8.40. With `CC(C)[C@@H](C(=O)N1CCC[C@H]1c1nc2ccc(-c3ccc(-c4ccc5nc([C@@H]6CCCN6C(=O)[C@H](C(C)C)N6CCCNC6=O)[nH]c5c4)cc3)cc2[nH]1)N1CCCNC1=O` [Compound 54] the pEC50 was 10.19. Work on `COC(=O)N[C@@H](CC(C)C)C(=O)N1CCC[C@H]1c1nc2ccc(-c3ccc(-c4ccc5nc([C@@H]6CCCN6C(=O)[C@H](CC(C)C)NC(=O)OC)[nH]c5c4)cc3)cc2[nH]1` [Compound 56] yielded a pEC50 of 10.92.
